Target: T1, h-11βHSD1 (Homo sapiens, UniProt P28845)
T1 construct: made in house
Experiment: 11βHSD1 enzyme assay (scintillation proximity assay, 3H-cortisone to 3H-cortisol)
Format: biochemical
Conditions: extract of yeast transformed with h-11βHSD1; 120 nM 3H-cortisone, 4 mM β-NADPH, 60 min at 30° C., SPA
Protocol: Pharmacological Methods 11βHSD1 Enzyme Assay Materials
^3H-cortisone and anti-rabbit Ig coated scintillation proximity assay (SPA) beads were purchased from Amersham Pharmacia Biotech, β-NADPH was from Sigma and rabbit anti-cortisol antibodies were from Fitzgerald. An extract of yeast transformed with h-11βHSD1 (Hult et al., FEBS Lett, 441, 25 (1998)) was used as the source of enzyme. The test compounds were dissolved in DMSO (10 mM). All dilutions were performed in a buffer containing 50 mM TRIS-HCl (Sigma Chemical Co), 4 mM EDTA (Sigma Chemical Co), 0.1% BSA (Sigma Chemical Co), 0.01% Tween-20 (Sigma Chemical Co) and 0.005% bacitracin (Novo Nordisk A/S), pH=7.4. Optiplate 96 wells plates were supplied by Packard. The amount of ^3H-cortisol bound to the SPA beads was measured on TopCount NXT, Packard.
h-11βHSD1, 120 nM ^3H-cortisone, 4 mM β-NADPH, antibody (1:200), serial dilutions of test compound and SPA particles (2 mg/well) were added to the wells. The reaction was initiated by mixing the different components and was allowed to proceed under shaking for 60 min at 30° C. The reaction was stopped be the addition of 10 fold excess of a stopping buffer containing 500 μM carbenoxolone and 1 μM cortisone. Data was analysed using GraphPad Prism software.

T1 sequence (P28845 whole entry): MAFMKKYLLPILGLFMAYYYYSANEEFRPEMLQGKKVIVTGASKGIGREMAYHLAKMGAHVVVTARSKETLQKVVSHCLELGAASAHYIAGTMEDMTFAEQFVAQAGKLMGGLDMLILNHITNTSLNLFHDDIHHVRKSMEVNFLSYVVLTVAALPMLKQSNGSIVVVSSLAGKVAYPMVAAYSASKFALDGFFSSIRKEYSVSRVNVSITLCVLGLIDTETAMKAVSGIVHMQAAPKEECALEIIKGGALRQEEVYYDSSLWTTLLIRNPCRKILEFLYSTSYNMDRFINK

IC50 [µM]	SMILES
1.8	CC(C)NC(=O)N1CCC(COc2ccc(C(=O)N(C)C3C4CC5CC3CC(O)(C5)C4)cc2)CC1 (stereo not shown) [Example 5f, 4-{4-[(5-Hydroxy-adamantan-2-yl)-methyl-carbamoyl]-phenoxy-methyl}-piperidine-1-carboxylic acid isopropyl-amide]
0.295	O=C(NC1C2CC3CC(C2)CC1C3)c1ccc(OC2CCC(COc3ccccn3)CC2)cc1 (stereo not shown) [Example E, 4-[4-(Pyridin-2-yl-oxy-methyl)-cyclohexyloxy]-N-adamantan-2-yl-benzamide]
0.678	O=C(NC1C2CC3CC(C2)CC1C3)c1ccc(OC2CCC(C(=O)O)CC2)cc1 (mixture of isomers) [Example 4a, Cis/trans 4-[4-adamantan-2-ylcarbamoyl)-phenoxy]-cyclohexanecarboxylic acid]
0.134	O=C(c1ccc(OCC2CCN(S(=O)(=O)c3ccccn3)CC2)cc1)N1CCCC2CCCCC21 (stereo not shown) [Example F, (Octahydro-quinolin-1-yl)-{4-[1-(pyridine-2-sulfonyl)-piperidin-4-ylmethoxy]-phenyl}-methanone]
0.266	O=C(O)c1cccc(S(=O)(=O)N2CCC(COc3ccc(C(=O)N4CCCC5CCCCC54)cc3)CC2)c1 (stereo not shown) [Example 8f, 3-{4-[4-(Octahydro-quinoline-1-carbonyl)-phenoxymethyl]-piperidine-1-sulfonyl}-benzoic acid]
0.284	CC(C)CC(=O)N1CCC(Oc2ccc(C(=O)NC3C4CC5CC(C4)CC3C5)cc2)CC1 (stereo not shown) [Example 2b, 4-[1-(3-Methyl-butyryl)-piperidin-4-yloxy]-N-ada-mantan-2-yl-benzamide]
0.118	O=C(NC1C2CC3CC(C2)CC1C3)c1ccc(OC2CCC(NC(=O)C3CC3)CC2)cc1 (mixture of isomers) [Example 2c, cis/trans-4-[4-(Cyclopropanecarbonyl-amino)-cyclohexyl-oxy]-N-adamantan-2-yl-benzamide]
0.19	Cc1c[nH]c(SCC2CCC(Oc3ccc(C(=O)NC4C5CC6CC(C5)CC4C6)cc3)CC2)n1 (stereo not shown) [Example 1e, N-Adamantan-2-yl-4-[4-(4-methyl-1H-imidazol-2-yl-sulfanylmethyl)-cyclo-hexyloxy]-benzamide]
0.18	O=C(NC1C2CC3CC(C2)CC1C3)c1ccc(OC2CCC(On3cccn3)CC2)cc1 (stereo not shown) [Example 2d, 4-[4-(Pyrazol-1-yloxy)-cyclohexyloxy]-N-adaman-tan-2-yl-benzamide]
1.18	O=C(c1ccc(OC2CCN(C(=O)c3ccc(Cl)nc3)C2)cc1)N1CC2CCC(CC2)C1 (stereo not shown) [Example G, {3-[4-(3-Aza-bicyclo[3.2.2]nonane-3-carbonyl)-phenoxy]-pyrrolidin-1-yl}-(6-chloro-pyridin-3-yl)-methanone]
0.19	O=C(NC1C2CC3CC(C2)CC1C3)c1ccc(OC2CCC(COn3cccn3)CC2)cc1 (stereo not shown) [Example 2e, 4-[4-(Pyrazol-1-yl-oxy-methyl)-cyclohexyloxy]-N-adamantan-2-yl-benzamide]
1.4	O=C(O)C1CCC(Oc2ccc(C(=O)N3CC4CCC(CC4)C3)cc2)C1 (stereo not shown) [Example 7a, 3-[4-(3-Aza-bicyclo[3.2.2]-nonane-3-carbonyl)-phenoxy]-cyclopentane-carboxylic acid]
0.604	CC1(C)CC2CC(C)(CN2C(=O)c2ccc(OC3CCC(C(=O)O)C3)cc2)C1 (stereo not shown) [Example 8a, 3-[4-(1,3,3-Trimethyl-6-aza-bicyclo[3.2.1]octane-6-carbonyl)-phenoxy]-cyclopentane carboxylic acid]
1.65	CN(C(=O)c1ccc(OC2CCC(NC(=O)C3CC3)CC2)cc1)C1C2CC3CC1CC(O)(C3)C2 (stereo not shown) [Example 8c, 4-[4-(Cyclopropanecarbonyl-amino)-cyclohexyloxy]-N-(5-hydroxy-adamantan-2-yl)-N-methyl-benzamide]
0.271	CCS(=O)(=O)N1CCC(COc2ccc(C(=O)N3CCCC4CCCCC43)cc2)CC1 (stereo not shown) [Example 3f, [4-(1-Ethanesulfonyl-piperidin-4-yl-methoxy)-phenyl]-(octahydro-quinolin-1-yl)-methanone]
0.096	O=C(NC1C2CC3CC(C2)CC1C3)c1ccc(O[C@H]2CC[C@@H](NS(=O)(=O)c3ccccn3)CC2)cc1 (stereo partly drawn) [Example 3c, Cis-N-Adamantan-2-yl-4-[4-(pyridine-2-sulfonylamino)-cyclohexyloxy]-benzamide]
0.36	CC1(C)CC2CC(C)(CN2C(=O)c2ccc(OC3CCC(C(=O)O)CC3)cc2)C1 (stereo not shown) [Example A, 4-[4-(1,3,3-Trimethyl-6-aza-bicyclo[3.2.1]octane-6-carbonyl)-phenoxy]cyclohexanecarboxylic acid]
0.976	O=C(NC1C2CC3CC(C2)CC1C3)c1ccc(N2[C@@H]3CC[C@H]2CC(Oc2ccccn2)C3)cc1 (stereo partly drawn) [Example 3h, 4-[(1S,5R)-3-(Pyridin-2-yloxy)-8-aza-bicyclo[3.2.1]oct-8-yl]-N-adamantan-2-yl-benzamide]
0.405	O=C(O)C1CCC(Oc2ccc(C(=O)N3CCCC4CCCCC43)cc2)CC1 (stereo not shown) [Example 3a, 4-[4-(Octahydro-quinoline-1-carbonyl)-phenoxy]-cyclohexanecarboxylic acid]
1.07	O=C(NC1CCC(Oc2ccc(C(=O)N3C4CCC3CC(O)C4)cc2)CC1)C1CC1 (stereo not shown) [Example C, Cyclopropanecarboxylic acid {4-[4-(3-hydroxy-8-aza-bicyclo[3.2.1]octane-8-carbonyl)-phenoxy]-cyclohexyl}-amide]
1.4	CC(C)CC(=O)N1CCC(Oc2ccc(C(=O)N3CC4CCC(CC4)C3)cc2)CC1 [Example 3b, 1-{4-[4-(3-Aza-bicyclo-[3.2.2]nonane-3-carbonyl)-phenoxy]-piperidin-1-yl}-3-methyl-butan-1-one]
2.19	CCS(=O)(=O)N1CCC(COc2ccc(C(=O)N(C)C3C4CC5CC3CC(O)(C5)C4)cc2)CC1 (stereo not shown) [Example 7f, 4-(1-Ethanesulfonyl-piperidin-4-ylmethoxy)-N-(5-hydroxy-adamantan-2-yl)-N-methyl-benzamide]
